Source: patent publication US6734292B1, “Pseudoerythromycin derivatives” (The Kitasato Institute, priority 2002, dated 2004)
“And” between values parts separate entries of the source, which are not always exact repeats. Identical values can stand only once.

Experiments:
[1] = test system: influenza virus-induced pneumonia; experiment: suppressive effect against pneumonia caused by influenza viral infection (mice influenza pneumonia model); format: in vivo
Protocol: Next, the suppressive effect of the compound EM703 against pneumonia caused by influenza viral infection was examined.
Sample was dissolved in physiological saline containing 1% DMSO and amount corresponding to oral dosage of the small administration for long-term therapy was administered from day-1 to day-6 of the infection to mice influenza pneumonia model (0.3 mg and 0.03 mg/mice), once a day, intraperitoneally. Results were compared with control group which was given only solvent.
In this system, mice developed pneumonia and almost died about 20 days after infection. […] This indicates suppressive effect against pneumonia and result to cure pneumonia.

THP-1 cells = experiment: enhancing effect for differentiation-induction from human monocyte to macrophage (THP-1/Mφ system, MTT readout); format: cell-based; parameters: key: ++: enhanced 100% or more; +: enhanced 50-100%; ±: enhanced 25-50%; −: no activity; /: expressed cytoxicity; NT: not tested or under assessment; details: in comparison with enhancing action for differentiation-induction of EM 100 μM
Protocol: In order to confirm enhancing effect for differentiation-induction of the compounds of the present invention, the enhancing effect for differentiation-induction from human monocyte to macrophage was assayed. Method is performed as follows. THP-1 cells were collected from cultured liquid by centrifugation, adjusted the concentration to 2×10^5 cells/ml using medium (RPMI 1640) and distributed into the 48-well plate at 500 μl/well. PMA solution 10 μl and sample solution 5 μl were added in each well, stirred with mild shaking and incubated at 37° C. for 72-96 hours under 5% CO2. Further MTT 0.5 mg/ml solution was added at 300 μl/well, and incubated at 37° C. for 3 hours under 5% CO2. Supernatant solution was suctioned using the injection tube, added DMSO 500 μl using automatic continuous injector to dissolve formazan completely and transferred each 100 μl to the 96-well plate. The optical absorption was measured using the plate-reader.

[2] = test system: bleomycin-induced pulmonary fibrosis; experiment: suppressive effect against bleomycin-induced pulmonary fibrosis (hydroxyproline levels in tissue); format: in vivo, mice; details: for Hydroxyproline levels in tissue, Assay result / Hydroxyproline levels in tissue, Weight conversion: day-28, individual mice
[3] = BLM + EM703 group: BLM 100 mg/kg tail vein day-0, EM703 50 mg/kg/day orally for 17 days
[4] = EM703 group (no BLM), 50 mg/kg/day orally, 50 mg/kg/day

| SMILES | survival of mice ([1]; EM703 0.3 mg/mice intraperitoneally once a day, day-1 to day-6 of infection, control mice almost died about 20 days after infection, FIG. 2) | body weight ([1]; administration of EM703 intraperitoneally, control showed significant decrease of body weight, FIG. 3) | suppressive effect against influenza virus-induced pneumonia ([1]; mice influenza pneumonia model, 0.3 mg/mice) | activities in THP-1/Mφ system, Treated conc. 0.3 μM (THP-1 cells) | activities in THP-1/Mφ system, Treated conc. 1 μM (THP-1 cells) | activities in THP-1/Mφ system, Treated conc. 3 μM (THP-1 cells) | activities in THP-1/Mφ system, Treated conc. 10 μM (THP-1 cells) | Hydroxyproline levels in tissue, Assay result [2, 3] | Hydroxyproline levels in tissue, Weight conversion [2, 3] | Hydroxyproline level, an index for lung injury, BLM+EM703 group versus BLM administered group ([2]; EM703 50 mg/kg/day orally, BLM 100 mg/kg) | Hydroxyproline levels in tissue, Assay result [2, 4] | Hydroxyproline levels in tissue, Weight conversion [2, 4] | melting point |
| --- | --- | --- | --- | --- | --- | --- | --- | --- | --- | --- | --- | --- | --- |
| CC[C@H]1O[C@]2(O)O[C@H]([C@@H](C)C3O[C@@](C)(C[C@@H]3C)[C@H](O[C@@H]3OC(C)CC(NC)C3O)[C@@H](C)[C@H](O[C@H]3CC(C)(OC)[C@@H](O)C(C)O3)[C@H]2C)[C@]1(C)O (some centres unmarked) [EM703, de(3′-N-methyl)-8,9-anhydro-pseudoerythromycin A 6,9-hemiketal] | 40% | increase body weight from day-10 | cured pneumonia | + (enhanced 50-100%) | + (enhanced 50-100%) | + (enhanced 50-100%) | + (enhanced 50-100%) | 583 µmol/L and 495 µmol/L and 437 µmol/L and 314 µmol/L | 5.2 µmol/g and 4.5 µmol/g and 4.4 µmol/g and 2.9 µmol/g | reduced | 552 µmol/L and 489 µmol/L and 591 µmol/L | 5.0 µmol/g and 4.6 µmol/g and 5.4 µmol/g |  |
| CC[C@H]1O[C@]2(O)O[C@H]([C@@H](C)C3O[C@@](C)(C[C@@H]3C)[C@H](O[C@@H]3OC(C)CC(N4CCCCCC4)C3O)[C@@H](C)[C@H](O[C@H]3CC(C)(OC)[C@@H](O)C(C)O3)[C@H]2C)[C@]1(C)O (some centres unmarked) [EM748, de(3′-dimethylamino)-3′-[hexahydro-1(1H)-azepinyl]-8,9-anhydro-pseudoerythromycin A 6,9-hemiketal] |  |  |  | − | ± (enhanced 25-50%) | ++ (enhanced 100% or more) | ++ (enhanced 100% or more) |  |  |  |  |  | 120 to 123 °C |
